Test results published in patent US8551951B2, “Pharmaceutical preparations and methods for inhibiting tumors” (Aenorasis SA Pharmaceuticals and Medical Devices, priority 2000, dated 2013).
Peptide text beside a SMILES is read from it.

Key:
human PC-3 tumor = experiment: Studies PC3-6 and PC3-12, human PC-3 prostate cancer nude mouse xenograft model; type: in vivo, nude mice
Text: Studies PC3-6 and PC3-12 (FIGS. 26-27) are consecutive group experiments designed to characterize the in vivo activity of PCK3145 in the human PC-3 prostate cancer nude mouse xenograft model and to explore relationships between dose, route and schedule of administration and the efficacy parameters of tumor growth (volume).
PC-3 cells harvested in mid-log phase were inoculated at 5×10^6 cells per mice via the subcutaneous route in the mice's back area. Tumors grown from this inoculum were excised at approximately day 32 to 35 post-tumor implantation (p.t.i) when tumor volume reached 200-300 mm^3 (i.e., cu mm). The necrotic tissue was removed and the viable tumor mass cut into small pieces (approximately 1 to 3 mm^3) were implanted SC in the flank region at two opposite sites of the mouse. Treatment with various concentrations of PCK3145 was initiated at day 3 post-tumor implantation (p.t.i) and was continued daily for 21 days. Subcutaneous injections were done below tumor growth sites. Intra-peritoneal injections were performed in the abdominal region. Intra-venous injections were performed via the lateral tail vein. The experiment was terminated 24 hours after the last treatment. Tumor measurements were taken at Days 11, 14, 16, 18, 20, 22 and 24 post-tumor implantation (p.t.i). Tumor volumes were calculated according to formula (a×b^2×0.5), where a—is the length of the long diameter, and b—is the width of the perpendicular small diameter.
Study No: PC3-6 illustrates the efficacy of PCK3145, injected subcutaneously, in tumor growth retardation in Nude mice, which have received PC-3 implants. Mice were separated in different group each receiving various amounts of PCK3145 (SEQ ID NO: 5) or control reagents. The different groups used in these experiments are illustrated in table 6 below. Each group contained 10 mice. Doxorubicin was administered as single bolus intra-venous injection on days 3 and 11 post-tumor implantation (p.t.i).
Study No: PC3-12 illustrates the efficacy of PCK3145 in tumor growth retardation in Nude mice, which have received PC-3 implants. Mice were separated in different group each receiving various amounts of PCK3145 (SEQ ID NO: 5) or control reagents. PCK3145 was injected either through intra-venous or intra-peritoneal route. The different groups used in these experiments are illustrated in table 7 below. Each group contained 9 mice.

Dunning Mat Ly Lu tumors = experiment: Studies MLL-5 and MLL-6, Mat Ly Lu tumor implanted in Copenhagen rats; type: in vivo
Experimental: Anti-tumor efficacy evaluation of PCK3145 against Mat Ly Lu (MLL) tumor implanted in Copenhagen rats was performed. (Protocol based on S. Garde et al.; The Prostate, 22: 225-233, 1993). Mat LyLu tumor cells were harvested in mid-log phase from the culture flasks by trypsinization, were centrifuged at 1200 rotation per minute (rpm) and washed three timed with Hanks balanced salt solution (HBSS). Following washing, cells were counted and adjusted to a concentration of 5×10^6 cells/ml in HBSS. A 0.1 ml volume of tumor cell inoculum containing 5×10^5 cells was administered subcutaneously into the flank region of each rat. Treatment started at day 3 post-tumor implantation (p.t.i) by local subcutaneous injection (i.e., in the shaved back area just below tumor implantation site) of various PCK3145 concentrations. This treatment was continued daily for 16 days. Experiments were terminated 24 hours after the last treatment. Tumor measurements were taken at days 7, 9, 11, 14, 16 and 18. Tumor volumes are calculated according to formula (a×b^2×0.5), where a—is the length of the long diameter, b—width of the perpendicular small diameter. At day 19 tumors of individual rats were excised and weighed.
Study No: MLL-5 illustrates the efficacy of PCK3145 (SEQ ID NO: 5) compared with polypeptide 7-21 (SEQ ID NO: 4) and polypeptide 76-94 (SEQ ID NO: 6) in tumor growth retardation in Copenhagen rats, which have received Mat Ly Lu implants. Mice were separated in different groups, each receiving various amount of PCK3145 (SEQ ID NO: 5) or control reagents. PCK3145 was injected through the subcutaneous route. The different groups used in these experiments are illustrated in table 8 below. Each group contained 8 mice.
Study No: MLL-6 illustrates the efficacy of PCK3145 (SEQ ID NO: 5) in tumor growth retardation in Copenhagen rats, which have received Mat Ly Lu implants. Mice were separated in different group each receiving various amounts of PCK3145 (SEQ ID NO: 5) or control reagents. PCK3145 was injected through the subcutaneous route. The different groups used in these experiments are illustrated in table 9 below. Each group contained 8 mice. Doxorubicin was administered as single bolus via intra-venous injection on day 3 p.t.i.

PC-3 cells = experiment: Apoptosis assay by ELISA plus; type: cell-based, human; conditions: for apoptotic cell death effect: 22.5 μM to 90 μM, 72 hours
Experimental: The three polypeptides (SEQ ID NO: 4, SEQ ID NO: 5 and SEQ ID NO 6) and native PSP94 used here as a positive control were tested in ELISA plus assay to measure cell death through apoptosis. Briefly, the ELISA plus assay is a sandwich enzyme immunoassay able to measure mono- and oligonucleosomes present in the cytoplasmic fraction of cell lysate using two antibodies, one directed against DNA and the other directed against histones. The apoptotic cell death is characterized by activation of endogenous endonucleases (e.g., calcium- and magnesium-dependant), which cleave double-stranded DNA at the most accessible internucleosomal linker region, generating mono- and oligonucleosomes. The enrichment of mono- and oligonucleosomes in the cytoplasm of the apoptotic cells is due to the fact that DNA degradation occurs several hours before plasma membrane breakdown.
Four thousand cells were seeded in Costar 96 well cell culture flat bottom plates in RPMI supplemented media containing 50 μg/ml of bovine serum albumin (BSA) and 0.1 μM FeSO4. The PC-3 cells were treated with various concentrations (22.5 μM to 90 μM) of polypeptides for 72 hours. Apoptosis assay was done as per manufacturer's instructions using the ApopTag kit (Boeringher Mannheim).

| Compound | anti-tumor effect on subcutaneous injection at a site distant from tumor (scruff of the neck) (human PC-3 tumor; 10 μg/kg/day and 100 μg/kg/day) | tumor growth (volume), study PC3-6 (human PC-3 tumor; 10 μg/kg/day s.c. below tumor sites, daily for 21 days, p=0.001 to 0.002 vs PBS) | tumor growth (volume), study PC3-12 (human PC-3 tumor; 100 μg/kg/day intra-venous, days 13, 17 and 20) | tumor growth (volume), study PC3-12 (human PC-3 tumor; 10, 500 and 1000 μg/kg/day intra-venous) | tumor growth (volume), study PC3-12 (human PC-3 tumor; 500 and 1000 μg/kg/day intra-venous) | anti-tumor effect (tumor volume), study MLL-5 (Dunning Mat Ly Lu tumors; 1 μg/kg/day s.c.) | anti-tumor effect (tumor volume), study MLL-5 (Dunning Mat Ly Lu tumors; 10 μg/kg/day s.c., days 11, 13, 16, 18) | tumor volume reduction over control, study MLL-6 (Dunning Mat Ly Lu tumors; 100 μg/kg/day s.c., days 14, 16 and 18) [%] | difference in tumor weight between control and treated group, study MLL-6 (Dunning Mat Ly Lu tumors; 100 μg/kg/day, day 18 p.t.i) [gram] | tumor weight, study MLL-6 (Dunning Mat Ly Lu tumors; 100 μg/kg/day, day 18 p.t.i, control 56.6 g) [g] | reduction in tumor mass, study MLL-6 (Dunning Mat Ly Lu tumors; 100 μg/kg/day, day 18 p.t.i, p=0.0003) [%] | anti-tumor effect, study MLL-6 (Dunning Mat Ly Lu tumors; 10 and 100 μg/kg/day s.c.) | apoptotic cell death effect (PC-3 cells) | apoptotic cell death, potency relative to the other polypeptides (PC-3 cells; 90 μM) | anti-tumor effect in the PC-3 nude mouse xenograft model (human PC-3 tumor; mouse, in vivo) | anti-tumor effect (tumor volume), study MLL-5 (Dunning Mat Ly Lu tumors; s.c., days 13, 16, 18, dose not given) |
| --- | --- | --- | --- | --- | --- | --- | --- | --- | --- | --- | --- | --- | --- | --- | --- | --- |
| C[C@@H](O)[C@H](NC(=O)[C@H](CCC(=O)O)NC(=O)[C@H](Cc1ccc(O)cc1)NC(=O)[C@H](CS)NC(=O)[C@@H](NC(=O)[C@H](CS)NC(=O)[C@@H](NC(=O)[C@H](CCC(=O)O)NC(=O)[C@H](CS)NC(=O)[C@H](CC(N)=O)NC(=O)[C@H](CC(=O)O)NC(=O)[C@@H](NC(=O)[C@H](CCC(N)=O)NC(=O)[C@H](Cc1c[nH]c2ccccc12)NC(=O)[C@@H](N)CCC(=O)O)[C@@H](C)O)[C@@H](C)O)[C@@H](C)O)C(=O)O [PCK3145, EWQTDNCETCTCYET] (H-EWQTDNCETCTCYET-OH; N-terminus and C-terminus assumed) | might not be efficacious enough | significant PC-3 tumor growth retardation | significant tumor growth retardation | No significant anti-tumor effect | trend towards significance | No significant effect | significant anti-tumor effect | 31 | 20 | 37.2 | 34 | significant dose-dependent anti-tumor effect | dose dependent increase in the apoptotic cell death effect | more potent than the other polypeptides | – | – |
| polypeptide 7-21: PSP94 derived synthetic polypeptide from the amino terminus end, SEQ ID NO: 4 (NEGVPGDSTRKCMDL; Polypeptide 7-21) | – | – | – | – | – | – | – | – | – | – | – | – | dose dependent increase in the apoptotic cell death effect | – | also observed in the PC-3 nude mouse xenograft model | comparable anti-tumor effect |
